In patent US20130270195A1, “MULTIFUNCTIONAL COMPOSITION FOR THE DISINFECTION TREATMENT OF WATER, AND USE OF THIS COMPOSITION” (Compagnie Des Salins Du Midi Et Des Salines De L'Est, priority 2010, published 2013):

How the values were obtained:
[1] = Anti-limescale effect: calcium deposited as limescale on beaker walls; details: for anti-limescale activity: conclusion in words; for % non limescale calcium / Calcium (part of the calcium responsible for the production of limescale): sample 11 Aquacid 24.0 mg/L, sample 14 metasilicate 20.0 mg/L
Experimental: The aim of this test was to analyze the reaction of two additives (HEDP, metasilicate) in the presence of calcium.
The apparatus used was as follows: • new beakers with a volume of 400 milliliters (mL), a pH meter, an oven at 70° C., plastic film as well as normal laboratory apparatus (including class A glassware).
The operating protocol can be summarized as follows: • For each test formulation, 300 mL of equivalent swimming pool solution was prepared in the beakers provided. Each series of analyses was spread over two types of water: one with a HT=30° F. and one with a HT=15° F., in order to produce a spectrum of results covering a broad range of water types. The isocyanuric acid was added in the liquid form from a 1 grams per liter (g/L) solution. The additives (HEDP, metasilicate) for the formulations were added in the liquid form from 1 g/L solutions. The solutions were systematically buffered, either with sulfuric acid or with sodium hydroxide, in order to provide an initial pH in the range 6.8 to 7.4 (maximum efficiency range for chlorine). The solutions were left covered with film and were analyzed 3 days later so that the substances had reacted. At the time the analysis was carried out, the beakers were placed in an oven at 70° C. in order to evaporate the liquid phase. They were then rinsed with 100 ml of osmosis purified water in order to eliminate the soluble deposits and to leave only limescale deposits on their walls. The beakers were then refilled with osmosis purified water and 1 mL of 1N hydrochloric acid in order to dissolve the deposits: the measurements were carried out on these solutions.
The parameters below were monitored during the study: • The following were measured for the starting tap water: pH, HT (hydrptimetric titer), calcium, AT (alkalimetric titer), and CAT (complete alkalimetric titer).
The pH was monitored throughout the experiment. The calcium was measured at the end of the experiment.

[2] = Chlorine stabilizing effect under UV radiation (residual chlorine assay); assay type: physicochemical; details: for Residual chlorine: starting 3 mg/L Cl2, sample 11 Aquacid 24.0 mg/L, sample 14 metasilicate 20.0 mg/L
Experimental: In the presence of UV radiation, chlorine is destroyed photochemically. Isocyanuric acid can be used to reduce the destruction of chlorine under the effect of UV.
The following apparatus was used: 5 liter volume bucket, pH meter and normal laboratory apparatus (including class A glassware).
The operating procedure can be summarized as follows: • For each test formulation, two liters of solution was prepared in the buckets provided. The isocyanuric acid was added in the liquid form from a 1 g/L solution. The additives (metasilicates, HEDP) for the formulations were added in the liquid form from 1 g/L solutions. The dose of chlorine necessary for this study was provided by bleach in quantities that meant that solutions containing 3 mg/L of Cl2 were obtained. The solutions were systematically buffered, either with sulfuric acid or with sodium hydroxide, in order to provide a starting pH in the range 6.8 to 7.4 (zone of maximum efficiency for chlorine).
The following parameters were measured during the study: • for the starting water: pH, residual chlorine, HT, calcium, AT, CAT were measured; • throughout the experiment: pH, residual chlorine were monitored.
The chlorine measurements were carried out using quantitative chlorine assay. The measurements were carried out at times T+32 h10 and T+50 h10; the formulation of the compositions at time T are given in Table 4.

[3] = Anti-corrosion effect: steel plate immersed in 4 g/L saline solutions; details: for anti-corrosion activity: conclusion in words; for Fe loss/plate: results at 2 months, 4 g/L saline, sample 11 Aquacid 24.0 mg/L, sample 14 metasilicate 20.0 mg/L
Experimental: The principle of the method consists of completely immersing, in 4 g/L saline solutions with the compounds of the formulations, one steel plate per beaker, disposed vertically in order to have as little contact as possible with the glass. The formulations were those presented in section 4 in Example 3.
The efficacy of the formulations was evaluated as a function of the loss on ignition of the plate over a period of time, namely 2 months.
The following apparatus was used: • 400 mL beakers, pH-meter, steel plate with a surface area of 5.3 cm^2, plastic film as well as normal laboratory apparatus (including class A glassware). The operating protocol can be summarized as follows:
• stripping the plates with 1N hydrochloric acid using ultrasound in order to have plates of identical quality; • degreasing the plate with acetone in order to obtain identical active surfaces; • weighing the plates with milligram precision.
Swimming pool concentration solutions were prepared in advance in 2 liters (L) graduated flasks in order to provide mutually homogeneous media. The beakers were filled with 300 mL of the above-mentioned solutions. The beakers were covered with food quality film in order to prevent the medium from being polluted and in order to prevent too much evaporation.
The parameters measured were as follows: • on the tap water: pH, HT, AT, CAT, calcium.
In order to accelerate the phenomenon of corrosion, bubbling was carried out using an aquarium pump and outlet jets mounted on a rail. The bubbling time was 10 minutes. The solutions were aerated on odd days of the week. Since bubbling raises the pH, it was brought back to swimming pool in-service values, between 6.8 and 7.4. In order to maintain the salinity at 4 g/L and to overcome natural evaporation, tap water was added in order to keep the volume of water constant at 300 mL.
The following parameters were measured: • pH; • observations of the solutions and immersed plates once a day, taking photographs. These observations were made without handling either the beakers or the solutions.
The scraping spatula was treated with ultrasound then the plates were scraped using the spatula to recover the deposit. In order to terminate stripping of the plate and thus to collect all of the deposit, the plate and the spatula were treated with ultrasound in a water bath. The deposits were then filtered through 10 micrometer (pm) pores and 1.2 μm pores and then dried.
The following parameters were measured: • the plates were weighed to milligram precision; • an iron analysis was carried out on the plates; • a dissolved iron analysis was carried out on the solutions.
The analyses were carried out after 2 months.

[4] = Evolution of turbidity of swimming pool water samples (HACH turbidity meter); assay type: physicochemical; details: for Turbidity: Aquacid or metasilicate 40.0 mg/L
Source text: The aim of this test was to compare the effect of two compositions comprising sodium chloride and isocyanuric acid in disinfecting swimming pool water, one further comprising HEDP, and the other metasilicate in order to obtain a composition according to the invention.
In all of the examples below, the substances used were as follows: • salt; • isocyanuric acid; • Aquacid© (powder with 72% HEDP); • disodium metasilicate pentahydrate; • tap water; • commercial bleach (concentration of bleach: 2.15% of active chlorine); • 1N hydrochloric acid; • 35% sulfuric acid; • sodium hydroxide; and • acetone.
The following proportions were prepared to prepare the samples:
The measurement of the turbidity, in NTU (Nephelometric Turbidity Unit), was carried out with the aid of a HACH turbidity meter at the time intervals indicated in Table 3. The reaction conditions were selected in order to accelerate the appearance of any cloudiness.

[5] = first starting water, HT 27 °f, calcium 109 mg/L
[6] = second starting water, HT 14.6 °f
[7] = second starting water, HT 14.6 °f, calcium 44.3 mg/L
[8] = time T, salt 4.0 g/L, iso acid 28.0 mg/L, chlorine 3.0 mg/L

Structure (SMILES)	anti-limescale activity [1]	calcium in the water before treatment transformed into limescale ([1]; first starting water, HT 27 °f) [%]	% non limescale calcium [1, 5] [%]	Calcium (part of the calcium responsible for the production of limescale) [1, 5] [mg/L]	calcium of the water before treatment transformed into limescale [1, 6] [%]	% non limescale calcium [1, 7] [%]	Calcium (part of the calcium responsible for the production of limescale) [1, 7] [mg/L]	Loss of chlorine ([2]; T + 32 h 10) [%]	Residual chlorine ([2]; T + 32 h 10) [mg/L]	Loss of chlorine ([2]; T + 50 h 10) [%]	Residual chlorine ([2]; T + 50 h 10) [mg/L]	anti-corrosion activity [3]	Fe loss/plate [3] [%]	Turbidity ([4]; T + 94 h) [NTU]	Turbidity ([4]; T + 118 h) [NTU]	Turbidity ([4]; T + 142 h) [NTU]	Turbidity ([4]; T + 168 h) [NTU]	Turbidity ([4]; T + 192 h) [NTU]	Turbidity ([4]; T + 216 h) [NTU]	Turbidity [4, 8] [NTU]	also measured
CC(O)(P(=O)(O)O)P(=O)(O)O [HEDP, 1-hydroxyethane-1,1-diphosphonic acid, reference compound]	have an anti-limescale activity	7.9	92.1	8.6	8.6	91.4	3.8	100.00	0	100.00	0	have an anti-corrosion activity	2.80	20.5	22.5	30.1	34.2	44.4	56.8	0.243	–
O.O.O.O.O.O=[Si]([O-])[O-].[Na+].[Na+] [Metasilicate, disodium metasilicate pentahydrate]	better anti-limescale activity than that of the HEDP	3.5	96.5	3.8	5.9	94.1	2.6	36.36	1.89	62.96	1.1	anti-corrosion activity that is even better than that of HEDP	1.63	0.538	0.547	0.526	0.579	1.4	1.45	0.274	preservation of the residual chlorine concentration ([2]; conclusion in words): preserves the residual chlorine concentration better than HEDP; cloudiness of the water detectable to the naked eye ([4]; same conditions as Table 3): does not induce any cloudiness
